Where a name gives a salt, the structure may show the parent alone. Read-outs that look alike come from different tables or passages of the source.
What was measured:
E. coli P155 = assay type: in vivo, Piglets; details: n = 14
[1] = system: fluid secretion caused by the enterotoxin(s) present in the culture filtrate (enteropathogenic strain of E. coli); assay: animal or person; assay type: in vivo, Mice
[2] = system: fluid secretion caused by material prepared by cell lysis of an enteropathogenic strain of E. coli; assay: Infant rabbit test: inhibition of fluid secretion after oral challenge with E. coli cell lysis material; assay type: in vivo, Rabbits; details: for % Fluid Inhibition: Rabbit, hydrochloride salt
Experimental: Infant rabbits 7-10 days old are dosed with the compound under investigation orally 45 min prior to oral challenge with 50 ml/kg bodyweight of material prepared by cell lysis of an enteropathogenic strain of E. coli. Control animals receive drug vehicle 45 mins prior to challenge with a similar volume of material. 5-7 Hours after oral administration of the challenge the animals are killed and gut weight/remaining bodyweight ratios calculated and the percentage fluid inhibition determined as above.

[3] = system: diarrhoea caused by culture filtrate prepared from an enteropathogenic strain of E. coli; assay: Piglet test: inhibition of scour after oral challenge with E. coli culture filtrate; assay type: in vivo, Piglets; details: scour score over 7 h, hydrochloride salt
Experimental: 2-4 Day old piglets are dosed with the compound orally 45 min prior to oral challenge with 25 ml of culture filtrate prepared from an enteropathogenic strain of E. coli. Control animals receive drug vehicle 45 min prior to challenge with a similar volume of material. Animals are observed for diarrhoea over a 7 hour period and the severity of scour scored on a 0-3 basis for each animal at hourly intervals. The percentage inhibition in treated animals is determined as: [formula]

[4] = system: intestinal secretion induced by cholera toxin; details: alleged in G. N. Mir et al. (1978); cited from earlier work
[5] = Mus musculus, po, 2 h; read-out: % Fluid Inhibition
[6] = 10 mg/kg oral, 45 min before challenge

CC1(C)S[C@@H]2[C@H](NC(=O)[C@H](N)c3ccc(O)cc3)C(=O)N2[C@H]1C(=O)O [Amoxycillin]
Mean scour score ± S.E.M. (during 6 hrs after treatment) (E. coli P155): 2.0 ± 0.2

Cc1cc(C(C)(C)C)cc(C)c1CC1=NCCN1 [Xylometazoline]
inhibition in vivo at 8.25 mg/kg ([1]; Mus musculus, po, 2 h): 44% | % Fluid Inhibition ([2]; 20 mg/kg oral): 119% | % Fluid Inhibition ([3]; 2 mg/kg oral): 44%

CCc1cccc(CC)c1NC1=NCCN1 [ST91]
inhibition in vivo at 5 mg/kg ([1]; Mus musculus, po, 2 h): 56% | inhibition in vivo at 1 mg/kg [1, 5]: 22%

CNC(=N)NC(=O)Nc1c(C)cccc1C [Lidamidine]
inhibition in vivo at 50 mg/kg ([1]; Mus musculus, po, 2 h): 33% | activity relative to the Compounds in the mouse test ([1]; mouse, in vivo): at least five times less active than the Compounds | % Fluid Inhibition ([2]; 50 mg/kg oral): -7% | activity in the rabbit test ([2]; in words): inactive | inhibition of intestinal secretion induced by cholera toxin [4]: inhibited intestinal secretion induced by cholera toxin

Clc1cccc(Cl)c1NC1=NCCN1 [Clonidine]
inhibition in vivo at 1 mg/kg ([1]; Mus musculus, po, 2 h, read-out: % Fluid Inhibition): 42% | % Fluid Inhibition ([2]; 5 mg/kg oral): 26% | % Fluid Inhibition ([3]; 0.2 mg/kg oral): 64%

c1cc2c(c(NC3=NCCN3)c1)CCCC2 [Tramazoline]
inhibition in vivo at 10 mg/kg ([1]; Mus musculus, po, 2 h): 44%

Cc1cc(C(C)(C)C)c(O)c(C)c1CC1=NCCN1 [Oxymetazoline]
inhibition in vivo at 0.1 mg/kg ([1]; Mus musculus, po, 2 h): 78%

N=C(N)NC(=O)Cc1c(Cl)cccc1Cl [BS 100-141, 2,6-dichlorophenylacetylguanidine hydrochloride]
inhibition in vivo at 1 mg/kg [1, 5]: 45% | % Fluid Inhibition ([3]; 1 mg/kg oral): 76%

Cc1ccc2ccccc2c1CC1=NCCN1 [2-Methyl Naphazoline]
inhibition in vivo at 20 mg/kg ([1]; Mus musculus, po, 2 h): 82%

c1ccc2c(CC3=NCCN3)cccc2c1 [Naphazoline]
inhibition in vivo at 10 mg/kg ([1]; Mus musculus, po, 2 h): 59% | % Fluid Inhibition [2, 6]: 32% | % Fluid Inhibition [3, 6]: 88%

Source: patent publication US4520014A (priority 1979, dated 1985)
